Data as given in patent CN106344577A, “Fistulains A在抗幽门螺杆菌药物中的应用” (Quanjiao Xianqi Pharmaceutical Technology Co Ltd, priority 2016, dated 2017).
In brackets after ≈: the same amount, converted by molar mass.

Tested on: Helicobacter pylori (幽门螺杆菌)
Assay: Agar dilution method, MIC against H. pylori
Assay type: cell-based
Conditions: same value for each of 6 strains: 5 random clinical strains (Hp001, Hp003, Hp004, Hp018, Hp036) and standard strain ATCC43504, complete growth inhibition, 37℃, 72 h, microaerobic, read-out: minimum inhibitory concentration (MIC)

MIC: 3.3 µg/mL (≈ 9.44 µM)
SMILES: CC1(C)S[C@@H]2[C@H](NC(=O)[C@H](N)c3ccccc3)C(=O)N2[C@H]1C(=O)O [氨苄西林]
